Like-named read-outs stand apart in the source and are kept apart here.
Target: T1, human Cav3.2 T-type Ca2+ channel (Homo sapiens, UniProt O95180)
T1 construct: expressed in transfected cells; host or cells: KJMGER8 cells (Namalwa cell-derived cell line)
Test: Inhibitory effect for intracellular calcium response via Cav3.2 T-type Ca2+ channels (FLIPR Calcium 3 Assay Kit)
Type: cell-based

[1] = human Cav3.2-expressing KJMGER8 cells (Namalwa-derived), calcium response induced by 5 mmol/L CaCl2, 3 μmol/L mibefradil as reference, read-out: IC50 for the human Cav3.2 T-type Ca2+ current

T1 sequence (O95180 whole entry): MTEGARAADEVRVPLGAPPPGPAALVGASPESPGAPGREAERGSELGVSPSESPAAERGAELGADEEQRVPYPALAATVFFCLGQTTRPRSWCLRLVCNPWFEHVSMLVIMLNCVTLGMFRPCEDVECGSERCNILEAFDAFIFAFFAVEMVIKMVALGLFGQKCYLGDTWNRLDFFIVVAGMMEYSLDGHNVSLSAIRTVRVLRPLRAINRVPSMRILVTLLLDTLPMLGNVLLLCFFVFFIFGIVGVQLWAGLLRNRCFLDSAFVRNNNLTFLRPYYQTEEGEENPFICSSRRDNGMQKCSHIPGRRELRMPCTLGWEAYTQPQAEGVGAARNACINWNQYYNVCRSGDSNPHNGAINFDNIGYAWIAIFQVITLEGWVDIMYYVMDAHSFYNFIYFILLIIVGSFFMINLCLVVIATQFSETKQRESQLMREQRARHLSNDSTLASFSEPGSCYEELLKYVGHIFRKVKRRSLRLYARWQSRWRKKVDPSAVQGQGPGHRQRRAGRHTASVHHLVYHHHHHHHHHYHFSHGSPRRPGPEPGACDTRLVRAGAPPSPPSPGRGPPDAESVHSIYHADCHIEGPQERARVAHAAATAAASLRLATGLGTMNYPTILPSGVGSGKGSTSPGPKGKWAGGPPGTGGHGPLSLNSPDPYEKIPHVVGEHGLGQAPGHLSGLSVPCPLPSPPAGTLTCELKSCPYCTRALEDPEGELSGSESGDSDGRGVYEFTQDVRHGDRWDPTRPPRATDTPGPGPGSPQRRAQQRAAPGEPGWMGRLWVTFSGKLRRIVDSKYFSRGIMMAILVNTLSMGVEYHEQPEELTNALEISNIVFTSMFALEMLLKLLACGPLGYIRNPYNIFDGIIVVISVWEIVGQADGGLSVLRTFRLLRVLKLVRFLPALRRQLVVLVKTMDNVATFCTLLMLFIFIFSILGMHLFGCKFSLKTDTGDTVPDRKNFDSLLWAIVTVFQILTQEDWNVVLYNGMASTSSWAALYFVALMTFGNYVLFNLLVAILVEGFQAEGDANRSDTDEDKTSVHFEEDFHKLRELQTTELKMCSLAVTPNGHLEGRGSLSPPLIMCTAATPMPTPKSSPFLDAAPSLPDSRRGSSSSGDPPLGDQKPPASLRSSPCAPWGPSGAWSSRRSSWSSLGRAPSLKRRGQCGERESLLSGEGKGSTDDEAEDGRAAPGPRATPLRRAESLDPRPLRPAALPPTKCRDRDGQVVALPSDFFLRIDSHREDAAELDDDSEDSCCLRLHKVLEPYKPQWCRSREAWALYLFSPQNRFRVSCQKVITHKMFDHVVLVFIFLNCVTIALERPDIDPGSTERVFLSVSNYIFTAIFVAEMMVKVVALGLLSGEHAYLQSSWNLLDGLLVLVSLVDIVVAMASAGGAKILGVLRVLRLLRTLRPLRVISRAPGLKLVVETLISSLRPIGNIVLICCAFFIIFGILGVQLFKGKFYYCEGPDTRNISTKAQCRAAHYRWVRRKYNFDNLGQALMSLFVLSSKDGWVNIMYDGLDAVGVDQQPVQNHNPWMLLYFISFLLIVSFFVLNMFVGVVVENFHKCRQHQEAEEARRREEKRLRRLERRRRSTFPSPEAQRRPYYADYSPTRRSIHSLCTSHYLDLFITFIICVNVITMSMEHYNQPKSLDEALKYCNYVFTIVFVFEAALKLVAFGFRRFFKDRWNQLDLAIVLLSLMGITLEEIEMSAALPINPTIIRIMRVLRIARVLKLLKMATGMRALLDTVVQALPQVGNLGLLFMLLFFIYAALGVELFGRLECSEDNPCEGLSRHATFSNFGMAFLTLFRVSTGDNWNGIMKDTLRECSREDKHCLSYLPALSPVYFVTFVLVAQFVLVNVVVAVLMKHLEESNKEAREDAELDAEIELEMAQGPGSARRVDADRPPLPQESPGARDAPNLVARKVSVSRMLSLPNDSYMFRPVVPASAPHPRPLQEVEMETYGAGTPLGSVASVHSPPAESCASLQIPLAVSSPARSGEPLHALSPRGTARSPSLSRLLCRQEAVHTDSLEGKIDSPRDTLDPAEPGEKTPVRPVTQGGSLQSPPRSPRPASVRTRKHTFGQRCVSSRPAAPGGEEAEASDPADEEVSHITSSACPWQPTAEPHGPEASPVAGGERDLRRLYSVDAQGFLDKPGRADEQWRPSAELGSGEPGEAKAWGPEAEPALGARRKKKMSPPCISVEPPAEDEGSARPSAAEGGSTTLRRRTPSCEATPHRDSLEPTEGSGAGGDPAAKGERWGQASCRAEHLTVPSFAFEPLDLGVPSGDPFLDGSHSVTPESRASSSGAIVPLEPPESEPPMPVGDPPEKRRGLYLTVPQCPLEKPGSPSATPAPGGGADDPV

| Compound | IC50 [nM] | IC50 [1] [nM] |
| --- | --- | --- |
| Cc1c(C(=O)NC2CCOCC2)cc2nc(C(F)(F)F)c(CC3CCC(F)(F)CC3)n2c1Cl [Compound 195, 5-Chloro-3-[(4,4-difluorocyclohexyl)methyl]-6-methyl-N-(tetrahydro-2H-pyran-4-yl)-2-(trifluoromethyl)imidazo[1,2-a]pyridine-7-carboxamide] | ≤ 100 | – |
| CCOC(C)(C)c1nc2cc(C(=O)NC3CCOCC3)cc(C)n2c1CC1CCC(F)(F)CC1 [Compound 1, 3-[(4,4-Difluorocyclohexyl)methyl]-2-(2-ethoxypropan-2-yl)-5-methyl-N-(tetrahydro-2H-pyran-4-yl)imidazo[1,2-a]pyridine-7-carboxamide] | ≤ 100 | – |
| CC(C)(CNC(=O)c1cc2nc(C(F)(F)F)c(CC3CCC(F)(F)CC3)n2c(Cl)c1Cl)S(C)(=O)=O [Compound 216, 5,6-Dichloro-3-[(4,4-difluorocyclohexyl)methyl]-N-[2-methyl-2-(methylsulfonyl)propyl]-2-(trifluoromethyl)imidazo[1,2-a]pyridine-7-carboxamide] | ≤ 100 | – |
| Cc1cc(CNC(=O)c2cc(Cl)n3c(CC4CCC(F)(F)CC4)c(C(F)(F)F)nc3c2)no1 [Compound 154, 5-Chloro-3-[(4,4-difluorocyclohexyl)methyl]-N-[(5-methylisoxazol-3-yl)methyl]-2-(trifluoromethyl)imidazo[1,2-a]pyridine-7-carboxamide] | – | ≤ 100 |
| Cc1cc(C(=O)NC2CCCOCC2)cc2nc(C(F)(F)F)c(CC3CCC(F)(F)CC3)n12 (stereo not shown) [Compound 74, 3-[(4,4-Difluorocyclohexyl)methyl]-5-methyl-N-(oxepan-4-yl)-2-(trifluoromethyl)imidazo[1,2-a]pyridine-7-carboxamide] | ≤ 100 | – |
| N#Cc1cc(C(=O)NC(=O)C2CC2)cc2nc(C(F)(F)F)c(CC3CCC(F)(F)CC3)n12 [Compound 202, 5-Cyano-N-(cyclopropanecarbonyl)-3-[(4,4-difluorocyclohexyl)methyl]-2-(trifluoromethyl)imidazo[1,2-a]pyridine-7-carboxamide] | ≤ 100 | – |
| CC(F)(F)c1nc2cc(C(=O)NC3CCC3)c(Cl)cn2c1CC1CCC(F)(F)CC1 [Compound 22, 6-Chloro-N-cyclobutyl-3-[(4,4-difluorocyclohexyl)methyl]-2-(1,1-difluoroethyl)imidazo[1,2-a]pyridine-7-carboxamide] | ≤ 100 | – |
| [2H]C([2H])([2H])OC(C)(C)c1nc2cc(C(=O)NC3CCOCC3)cc(C)n2c1CC1CCC(F)(F)CC1 [Compound 11, 3-[(4,4-Difluorocyclohexyl)methyl]-2-(2-methoxy-d3-propan-2-yl)-5-methyl-N-(tetrahydro-2H-pyran-4-yl)imidazo[1,2-a]pyridine-7-carboxamide] | ≤ 100 | – |
| COc1ccc(Cc2c(C(F)(F)F)nc3cc(C(=O)NC4CCOCC4)cc(C)n23)cc1 [Compound 209, 3-(4-Methoxybenzyl)-5-methyl-N-(tetrahydro-2H-pyran-4-yl)-2-(trifluoromethyl)imidazo[1,2-a]pyridine-7-carboxamide] | ≤ 100 | – |
| CC(C)(C)NC(=O)c1cc(Cl)n2c(CC3CCC(F)(F)CC3)c(C(F)(F)F)nc2c1 [Compound 220, N-tert-Butyl-5-chloro-3-[(4,4-difluorocyclohexyl)methyl]-2-(trifluoromethyl)imidazo[1,2-a]pyridine-7-carboxamide] | ≤ 100 | – |
| CC(C)(C)c1nc2cc(C(=O)NC3CC4(COC4)C3)c(Cl)cn2c1CC1CCC(F)(F)CC1 [Compound 148, 2-tert-Butyl-6-chloro-3-[(4,4-difluorocyclohexyl)methyl]-N-(2-oxaspiro[3.3]heptane-6-yl)imidazo[1,2-a]pyridine-7-carboxamide] | ≤ 100 | – |
| CC(C)c1nc2cc(C(=O)NC(C)(C)C)cc(C#N)n2c1CC1CCC(F)(F)CC1 [Compound 226, N-tert-Butyl-5-cyano-3-[(4,4-difluorocyclohexyl)methyl]-2-isopropylimidazo[1,2-a]pyridine-7-carboxamide] | ≤ 100 | – |
| CC(C)(O)CNC(=O)c1cc2nc(C(C)(F)F)c(CC3CCC(F)(F)CC3)n2cc1Cl [Compound 26, 6-Chloro-3-[(4,4-difluorocyclohexyl)methyl]-2-(1,1-difluoroethyl)-N-(2-hydroxy-2-methylpropyl)imidazo[1,2-a]pyridine-7-carboxamide] | ≤ 100 | – |
| CC(C)(C)NC(=O)c1cc(C#N)n2c(CC3CCC(F)(F)CC3)c(C(C)(F)F)nc2c1 [Compound 225, N-tert-Butyl-5-cyano-3-[(4,4-difluorocyclohexyl)methyl]-2-(1,1-difluoroethyl)imidazo[1,2-a]pyridine-7-carboxamide] | ≤ 100 | – |
| Cc1cc(CNC(=O)c2cc(Cl)n3c(CC4CCC(F)(F)CC4)c(C(F)(F)F)nc3c2)[nH]n1 [Compound 152, 5-Chloro-3-[(4,4-difluorocyclohexyl)methyl]-N-[(3-methyl-1H-pyrazol-5-yl)methyl]-2-(trifluoromethyl)imidazo[1,2-a]pyridine-7-carboxamide] | – | ≤ 100 |
| Cc1cc(C(=O)NC(C)(C)C)cc2nc(C(F)(F)F)c(CC3CCC(F)(F)CC3)n12 [Compound 217, N-tert-Butyl-3-[(4,4-difluorocyclohexyl)methyl]-5-methyl-2-(trifluoromethyl)imidazo[1,2-a]pyridine-7-carboxamide] | ≤ 100 | – |

| Compound | IC50 [nM] | IC50 [1] [nM] |
| --- | --- | --- |
| Cc1cc(C(=O)NC2CC(CO)(CO)C2)cc2nc(C(F)(F)F)c(CC3CCC(F)(F)CC3)n12 [Compound 80, N-[3,3-Bis(hydroxymethyl)cyclobutyl]-3-[(4,4-difluorocyclohexyl)methyl]-5-methyl-2-(trifluoromethyl)imidazo[1,2-a]pyridine-7-carboxamide] | ≤ 100 | – |
| N#Cc1cc(C(=O)NC2CCC2)cc2nc(C(F)(F)F)c(CC3CCC(F)(F)CC3)n12 [Compound 54, 5-Cyano-N-cyclobutyl-3-[(4,4-difluorocyclohexyl)methyl]-2-(trifluoromethyl)imidazo[1,2-a]pyridine-7-carboxamide] | ≤ 100 | – |
| CN(C)C(C)(C)CNC(=O)c1cc(C#N)n2c(CC3CCC(F)(F)CC3)c(C(F)(F)F)nc2c1 [Compound 156, 5-Cyano-3-[(4,4-difluorocyclohexyl)methyl]-N-[2-(dimethylamino)-2-methylpropyl]-2-(trifluoromethyl)imidazo[1,2-a]pyridine-7-carboxamide] | ≤ 100 | – |
| O=C(NCCN(CCO)CCO)c1cc(Cl)n2c(CC3CCC(F)(F)CC3)c(C(F)(F)F)nc2c1 [Compound 109, N-{2-[Bis(2-hydroxyethyl)amino]ethyl}-5-chloro-3-[(4,4-difluorocyclohexyl)methyl]-2-(trifluoromethyl)imidazo[1,2-a]pyridine-7-carboxamide] | – | ≤ 100 |
| Cc1cc(C(=O)NC2CCOCC2)cc2nc(C(C)C)c(Cc3ccc(Cl)cc3)n12 [Compound 224, 3-(4-Chlorobenzyl)-2-isopropyl-5-methyl-N-(tetrahydro-2H-pyran-4-yl)imidazo[1,2-a]pyridine-7-carboxamide] | ≤ 100 | – |
| O=C(CNC(=O)c1cc(Cl)n2c(CC3CCC(F)(F)CC3)c(C(F)(F)F)nc2c1)NC1CCOC1 (stereo not shown) [Compound 131, 5-Chloro-3-[(4,4-difluorocyclohexyl)methyl]-N-[2-oxo-2-(tetrahydrofuran-3-ylamino)ethyl]-2-(trifluoromethyl)imidazo[1,2-a]pyridine-7-carboxamide] | ≤ 100 | – |
| CC(C)(C)C(=O)NC(=O)c1cc(C#N)n2c(CC3CCC(F)(F)CC3)c(C(F)(F)F)nc2c1 [Compound 203, 5-Cyano-3-[(4,4-difluorocyclohexyl)methyl]-N-pivaloyl-2-(trifluoromethyl)imidazo[1,2-a]pyridine-7-carboxamide] | ≤ 100 | – |
| O=C(NC1CCOCC1)c1cc(C(F)F)n2c(CC3CCC(F)(F)CC3)c(C(F)(F)F)nc2c1 [Compound 48, 3-[(4,4-Difluorocyclohexyl)methyl]-5-(difluoromethyl)-N-(tetrahydro-2H-pyran-4-yl)-2-(trifluoromethyl)imidazo[1,2-a]pyridine-7-carboxamide] | ≤ 100 | – |
| O=C(NCc1cccc(O)c1)c1cc(Cl)n2c(CC3CCC(F)(F)CC3)c(C(F)(F)F)nc2c1 [Compound 103, 5-Chloro-3-[(4,4-difluorocyclohexyl)methyl]-N-(3-hydroxybenzyl)-2-(trifluoromethyl)imidazo[1,2-a]pyridine-7-carboxamide] | – | ≤ 100 |
| N#Cc1cc(C(=O)NC2(C3CCOCC3)CC2)cc2nc(C(F)(F)F)c(CC3CCC(F)(F)CC3)n12 [Compound 66, 5-Cyano-3-[(4,4-difluorocyclohexyl)methyl]-N-[1-(tetrahydro-2H-pyran-4-yl)cyclopropyl]-2-(trifluoromethyl)imidazo[1,2-a]pyridine-7-carboxamide] | ≤ 100 | – |
| C#Cc1cc(C(=O)NC2CCOCC2)cc2nc(C(F)(F)F)c(CC3CCC(F)(F)CC3)n12 [Compound 50, 3-[(4,4-Difluorocyclohexyl)methyl]-5-ethynyl-N-(tetrahydro-2H-pyran-4-yl)-2-(trifluoromethyl)imidazo[1,2-a]pyridine-7-carboxamide] | – | ≤ 100 |
| CSC(C)(C)CNC(=O)c1cc2nc(C(F)(F)F)c(CC3CCC(F)(F)CC3)n2c(Cl)c1Cl [Compound 213, 5,6-Dichloro-3-[(4,4-difluorocyclohexyl)methyl]-N-[2-methyl-2-(methylthio)propyl]-2-(trifluoromethyl)imidazo[1,2-a]pyridine-7-carboxamide] | ≤ 100 | – |
| O=C(CC1CCOCC1)NNC(=O)c1cc(Cl)n2c(CC3CCC(F)(F)CC3)c(C(F)(F)F)nc2c1 [Compound 143, 5-Chloro-3-[(4,4-difluorocyclohexyl)methyl]-N′-[2-(tetrahydro-2H-pyran-4-yl)acetyl]-2-(trifluoromethyl)imidazo[1,2-a]pyridine-7-carbohydrazide] | ≤ 100 | – |
| N#Cc1cc(C(=O)NC2CCCOC2)cc2nc(C(F)(F)F)c(CC3CCC(F)(F)CC3)n12 (stereo not shown) [Compound 64] | – | ≤ 100 |
| Cc1cc(C(O)C(O)C2CCOCC2)cc2nc(C(F)(F)F)c(CC3CCC(F)(F)CC3)n12 (stereo not shown) [Compound 82, 1-{3-[(4,4-Difluorocyclohexyl)methyl]-5-methyl-2-(trifluoromethyl)imidazo[1,2-a]pyridin-7-yl}-2-(tetrahydro-2H-pyran-4-yl)ethane-1,2-diol] | ≤ 100 | – |

From patent US9540366B2, “Ring-fused heterocyclic compound” (Kyowa Hakko Kirin Co., Ltd., priority 2012, dated 2017)
